Reference: patent US12465049B2, “Pest control method, and pest control agent composition and pest control agent set” (Nippon Soda Co., Ltd., priority 2019, dated 2025)

Tested on: Tetranychus urticae
Test: Test for confirming effect on Tetranychus urticae (kidney bean leaves in petri dish, sprinkling; survival numbers of next generation)
Assay type: in vivo
Protocol: Test for Confirming Effect on Tetranychus urticae
Ten Tetranychus urticae female imagoes were inoculated on kidney bean leaves placed in each petri dish on the day before chemical solution treatment.
A flowable agent containing the compound A was diluted with water containing RABIDEN 3S diluted 5000 times to prepare chemical solutions A containing the compound A at twice concentrations described in Table 3, respectively.
A preparation containing the compound B or a flowable agent containing the compound B was diluted with water containing RABIDEN 3S diluted 5000 times to prepare chemical solutions B containing the compound B at twice concentrations described in Table 3, respectively.
{Preparations Used in Test Examples and Containing the Compound B}
• Test numbers a and b: hexythiazox: Nissorun wettable powder (produced by Nippon Soda Co., Ltd.) • Test numbers c and d: abamectin: Agri-Mek (produced by Syngenta Japan K.K.) • Test numbers e and f: fenpyroximate: DANITRON flowable (produced by NIHON NOHYAKU CO., LTD.) • Test numbers g and h: acetamiprid: MOSPILAN water soluble powder (produced by Nippon Soda Co., Ltd.) • Test number i: propargite: Omite wettable powder (produced by NIHON NOHYAKU CO., LTD.)
A mixed solution obtained by mixing the chemical solution A and the chemical solution B in an equivalent amount was sprinkled on a petri dish containing kidney bean leaves on which Tetranychus urticae was inoculated at 2 mg per 1 cm^2 with a rotatory sprinkling tower (AB mixture application plot).
The chemical solution A and the chemical solution B were twice diluted with the water containing RABIDEN 3S diluted 5000 times to obtain a chemical solution A′ and a chemical solution B′, respectively.
The chemical solution A′ was sprinkled on another petri dish containing kidney bean leaves on which Tetranychus urticae was inoculated at 2 mg per 1 cm^2 with a rotatory sprinkling tower (A single application plot). The Chemical solution B′ was sprinkled on another petri dish containing kidney bean leaves on which Tetranychus urticae was inoculated at 2 mg per 1 cm^2 with a rotatory sprinkling tower (B single application plot).
Then, the petri dishes on which the chemical solutions were sprinkled were placed in a thermostatic chamber at a temperature of 25° C. and a humidity of 60%. All the imagoes were removed after 3 days elapsed from the sprinkling. Then, the petri dishes from which the imagoes were removed were placed in a thermostatic chamber at a temperature of 25° C. and a humidity of 60%. When 10 days elapsed from the sprinkling, the survival numbers of the next generation were investigated, and the effectivenesses were calculated. Effectiveness (%)=(Cn−Tn)/Cn×100 • Cn: Survival numbers of next generation in non-treatment plot after 10 days • Tn: Survival numbers of next generation in treatment plot after 10 days
To show the degree of a synergistic effect, the “effectiveness expectation” was calculated based on the Colby method. When the effectiveness is higher than the “effectiveness expectation”, it is determined that there is a synergistic effect. Expectation of effectiveness (%)(E)=X+Y−XY/100 • X: measurement of effectiveness in B single application plot (%) • Y: measurement of effectiveness in A single application plot (%)

CCCOc1cc(C(F)(F)F)ccc1O[C@H]1C[C@H]2CCC[C@@H](C1)N2Oc1ccc(C(F)(F)F)cn1 [acynonapyr]
Effectiveness Found (acynonapyr 0.4 ppm, B single application plot, 10 days after sprinkling): 58%

C#CCOS(=O)OC1CCCCC1Oc1ccc(C(C)(C)C)cc1 (centres unmarked) [propargite]
Effectiveness Found (propargite 5 ppm, B single application plot, 10 days after sprinkling): 24%

Cc1nn(C)c(Oc2ccccc2)c1C=NOCc1ccc(C(=O)OC(C)(C)C)cc1 [fenpyroximate]
Effectiveness Found (fenpyroximate 2.5 ppm, B single application plot, 10 days after sprinkling): 67%

CCN(Oc1cc(Br)cc(C(F)(F)F)c1)C(=O)NC(C)(C)C(=O)NCC(F)(F)F [Compound (II), 2-{3-[3-bromo-5-(trifluoromethyl)phenoxy]-3-ethylureido}-2-methyl-N-(2,2,2-trifluoroethyl)propanamide]
Effectiveness Found (Compound (II) 2.3 ppm, A single application plot, next generation 10 days after sprinkling): 52%
Effectiveness Found (Compound (II) 4.7 ppm, A single application plot, next generation 10 days after sprinkling): 74%

C[C@@H]1[C@@H](c2ccc(Cl)cc2)SC(=O)N1C(=O)NC1CCCCC1 [hexythiazox]
Effectiveness Found (hexythiazox 1 ppm, B single application plot, 10 days after sprinkling): 58%

abamectin
Effectiveness Found (abamectin 0.07 ppm, B single application plot, 10 days after sprinkling): 42%

C/C(=N\C#N)N(C)Cc1ccc(Cl)nc1 [acetamiprid]
Effectiveness Found (acetamiprid 100 ppm, B single application plot, 10 days after sprinkling): 5%
